In PubChem BioAssay AID330 (DTP/NCI, 2004):
Values joined by “and” are separate entries in the source; they are usually repeats but may differ in a detail not shown here. Equal entries are not always repeated. Toxic doses and inconclusive results are not listed.

Tested on: P388 leukemia ip, CD2F1 mice, survival T/C
Test: NCI In Vivo Anticancer Drug Screen. Data for tumor model P388 Leukemia (intraperitoneal) in CD2F1 (CDF1) mice
Settings: endpoint: median survival time, higher = longer survival
Procedure, shortened: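 Mice carrying the transplanted tumor received test compound or vehicle. Survival was recorded in each group, and the value is the treated-group measurement divided by that of the vehicle-treated control group.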

[1] = dose: 50.0 mg/kg/injection, schedule: Q01DX005 (ip), vehicle: saline with Tween-80
[2] = dose: 100.0 mg/kg/injection, schedule: Q01DX005 (ip), vehicle: saline with Tween-80
[3] = dose: 200.0 mg/kg/injection, schedule: Q01DX005 (ip), vehicle: saline with Tween-80
[4] = dose: 50.0 mg/kg/injection, schedule: Q01DX009 (ip), vehicle: Klucel (hydroxypropylcellulose) (HPC)
[5] = dose: 100.0 mg/kg/injection, schedule: Q01DX009 (ip), vehicle: Klucel (hydroxypropylcellulose) (HPC)
[6] = dose: 200.0 mg/kg/injection, schedule: Q01DX009 (ip), vehicle: Klucel (hydroxypropylcellulose) (HPC)
[7] = dose: 60.0 mg/kg/injection, schedule: Q01DX005 (ip), vehicle: saline with Tween-80
[8] = dose: 120.0 mg/kg/injection, schedule: Q01DX005 (ip), vehicle: saline with Tween-80
[9] = dose: 240.0 mg/kg/injection, schedule: Q01DX005 (ip), vehicle: saline with Tween-80
[10] = dose: 60.0 mg/kg/injection, schedule: Q01DX005 (ip), vehicle: Klucel (hydroxypropylcellulose) (HPC)
[11] = dose: 50.0 mg/kg/injection, schedule: Q01DX005 (ip), vehicle: Klucel (hydroxypropylcellulose) (HPC)
[12] = dose: 100.0 mg/kg/injection, schedule: Q01DX005 (ip), vehicle: Klucel (hydroxypropylcellulose) (HPC)
[13] = dose: 200.0 mg/kg/injection, schedule: Q01DX005 (ip), vehicle: Klucel (hydroxypropylcellulose) (HPC)

For `CN1C(=O)CC2C(=O)N(Cc3ccccc3)C(=O)C2C1=O` (centres undefined), which T/C [1] is on record?
Its T/C is 101 % of control.

And the T/C [2]?
Its T/C is 101 % of control.

And the T/C [3]?
The T/C was 96 % of control.

With `COC(=O)c1ccc(SCCC2(COS(C)(=O)=O)OCCO2)cc1` as the compound, how does the T/C [4] read?
Its T/C is 106 % of control.

What about the T/C [5] of the same compound?
Its T/C is 102 % of control.

And the T/C [6]?
The T/C was 96 % of control.

Which results are given for `COC(=O)Cc1ccccc1-n1nccc1S(C)=O` (centres undefined)?
T/C [7]: 109 % of control; T/C [8]: 104 % of control; T/C [9]: 106 % of control

For `C=C1C(=O)OC2CC3(C)OC3CCC3(C)OC3CC12` (centres undefined), which T/C (dose: 7.75 mg/kg/injection, schedule: Q01DX005 (ip), vehicle: Klucel (hydroxypropylcellulose) (HPC)) is on record?
The T/C was 105 % of control.

And the T/C (dose: 15.5 mg/kg/injection, schedule: Q01DX005 (ip), vehicle: Klucel (hydroxypropylcellulose) (HPC))?
The T/C was 101 % of control.

And the T/C (dose: 31.0 mg/kg/injection, schedule: Q01DX005 (ip), vehicle: Klucel (hydroxypropylcellulose) (HPC))?
Its T/C is 109 % of control.

What about the T/C (dose: 62.0 mg/kg/injection, schedule: Q01DX005 (ip), vehicle: Klucel (hydroxypropylcellulose) (HPC)) of the same compound?
Its T/C is 105 % of control.

With `CC1CCC2(C)OC1OC2CN` (centres undefined) as the compound, how does the T/C [1] read?
Its T/C is 100 % of control.

What about the T/C [2] of the same compound?
The T/C was 99 % of control.

What about the T/C [3] of the same compound?
Its T/C is 100 % of control.

With `O=C1CSC(=Nc2ccccc2)N1c1ccc(-n2c(-c3ccc(N=Cc4ccc(Cl)cc4)cc3)nc3ccccc3c2=O)cc1` as the compound, how does the T/C [10] read?
The T/C was 92 % of control.

With `CCOC(=O)c1cnc(NCCCCNc2ncc(C(=O)OCC)c(=O)[nH]2)[nH]c1=O` as the compound, how does the T/C [11] read?
Its T/C is 98 % of control.

And the T/C [12]?
Its T/C is 90 % of control.

And the T/C [13]?
Its T/C is 90 % of control.

What does the source list for `O=C1C(c2ccc3ccccc3n2)=C(O)c2ccccc21`?
T/C (dose: 15.0 mg/kg/injection, schedule: Q01DX005 (ip), vehicle: Klucel (hydroxypropylcellulose) (HPC)): 101 % of control; T/C (dose: 30.0 mg/kg/injection, schedule: Q01DX005 (ip), vehicle: Klucel (hydroxypropylcellulose) (HPC)): 96 % of control; T/C [10]: 101 % of control and 88 % of control

With `Cc1cc(C)c(S(=O)(=O)O)c(C)c1Nc1ccc(Nc2c(C)cc(C)c(S(=O)(=O)O)c2C)c2c1C(=O)c1ccccc1C2=O` as the compound, how does the T/C (dose: 50.0 mg/kg/injection, schedule: Q01DX009 (ip), vehicle: saline with Tween-80) read?
The T/C was 92 % of control.

And the T/C (dose: 100.0 mg/kg/injection, schedule: Q01DX009 (ip), vehicle: saline with Tween-80)?
Its T/C is 91 % of control.

With `Cc1c(Cl)cccc1NC(=O)/C(Cl)=C1/Sc2ccccc2NC1=O` as the compound, how does the T/C [7] read?
The T/C was 96 % of control.

And the T/C [8]?
The T/C was 93 % of control.

What about the T/C [9] of the same compound?
Its T/C is 91 % of control.

`Nc1ccc2c(NCCCCCCNc3c4ccccc4nc4cc(N)ccc34)c3ccccc3nc2c1` was tested. Which T/C (dose: 0.63 mg/kg/injection, schedule: Q01DX009 (ip), vehicle: other) did it give?
The T/C was 122 % of control.

How did the T/C [11] turn out when `O=C1NC(=O)C(CCCCCl)N1` (centres undefined) was run?
The T/C was 100 % of control.

What about the T/C [12] of the same compound?
The T/C was 102 % of control.

What about the T/C [13] of the same compound?
The T/C was 98 % of control.

With `COc1cc(C2c3cc4c(cc3OC(C)(OC)C2C(C)=O)OCO4)cc(OC)c1O` (centres undefined) as the compound, how does the T/C [7] read?
Its T/C is 91 % of control.

What about the T/C [8] of the same compound?
Its T/C is 95 % of control.

And the T/C [9]?
The T/C was 97 % of control.

`O/N=C(/CN1CCOCC1)c1ccccc1` was tested. Which T/C [4] did it give?
The T/C was 105 % of control.

And the T/C [5]?
The T/C was 100 % of control.

What about the T/C [6] of the same compound?
Its T/C is 102 % of control.

How did the T/C (dose: 12.5 mg/kg/injection, schedule: Q01DX005 (ip), vehicle: saline with Tween-80) turn out when `Cc1cc(C)cc(C(=O)NC(=C(NC(=O)c2cc(C)cc(C)c2)c2ccncc2)c2ccncc2)c1` (mixture of isomers) was run?
Its T/C is 96 % of control.

What about the T/C (dose: 25.0 mg/kg/injection, schedule: Q01DX005 (ip), vehicle: saline with Tween-80) of the same compound?
The T/C was 90 % of control.

What about the T/C [1] of the same compound?
The T/C was 86 % of control and 90 % of control.

For `CCOc1cccc(C=NCCS)c1O`, which T/C [1] is on record?
The T/C was 92 % of control.

What about the T/C [2] of the same compound?
The T/C was 90 % of control.

What about the T/C [3] of the same compound?
Its T/C is 86 % of control.
